Laboratory results published in ChEMBL document CHEMBL3301361, “Experimental in vitro DMPK and physicochemical data on a set of publicly disclosed compounds”.

experiment: physchem; conditions: octan-1-ol/water, pH 7.4

| Compound | logD |
| --- | --- |
| COc1cc2c(c(OC)c1OC)-c1ccc(OC)c(=O)cc1C(NC(C)=O)CC2 (stereo unspecified) | 1.12 |
| CC(=O)Nc1ccc(S(=O)(=O)Nc2ccc(Cc3ccncc3)cc2)cc1 | 2.8 |
| COC(=O)C1C(OC(=O)c2ccccc2)CC2CCC1N2C (stereo unspecified) | 1.06 |
| CN(C(=O)Cc1ccc(Cl)c(Cl)c1)[C@H](CN1CCCC1)c1ccccc1 [ICI-199,441] | 3.42 |
| COc1cc(O)c2c(c1)/C=C/C[C@H](O)[C@H](O)C(=O)/C=C\C[C@H](C)OC2=O | 1.64 |
| Oc1ncnc2[nH]ncc12 [ALLOPURINOL] | -0.42 |
| NC(=O)c1cccc(C[C@@H]2C[C@H]3CC[C@@H](C2)N3Cc2ccccc2)c1 | 1.11 |
| COc1ccc(-n2cnc3cc(NS(=O)(=O)c4ccccc4)ccc32)cc1 | 3.7 |
| Nc1ccc(C2(c3ccc(N)cc3)CCCCC2)cc1 | 3.2 |
| CN(C)C(=O)c1ccc(C(=C2CCN(Cc3cscn3)CC2)c2cccc3cccnc23)cc1 | 2.3 |
| C=C1C[C@@H]2[C@H](CC[C@]3(C)C(=O)CC[C@@H]23)[C@@]2(C)C=CC(=O)C=C12 [EXEMESTANE] | 2.98 |
| O=c1c2ccccc2nc2n1CCS2(=O)=O | 0.8 |
| CCc1cc2c(s1)-n1c(C)nnc1CN=C2c1ccccc1Cl [ETIZOLAM] | 2.52 |
| Cc1ccc(CN2[C@@H]3CC[C@H]2C[C@@H](Oc2cccc(C(N)=O)c2)C3)s1 | 2.39 |
| COCCCOc1ccnc(C[S+]([O-])c2nc3ccccc3[nH]2)c1C (stereo unspecified) [RABEPRAZOLE] | -0.69 |
| CCOc1ccc(-n2c(CC)nc3ccccc3c2=O)cc1 | 3.27 |
| CN(CCO)C(=O)c1ccc([C@H](c2cccc(NC(=O)C3CC3)c2)N2CCN(Cc3ccc(F)cc3)CC2)cc1 | 3.38 |

same assay, conditions: octan-1-ol/water, pH 7.4, LogD7.4

| Compound | logD |
| --- | --- |
| Cc1cnc2c(N[C@H](C)CO)nc(SCc3cccc(F)c3F)nc2n1 | 3.55 |
| Cc1nc(C(=O)N2CCCC3(CCN(Cc4ccccc4)CC3)C2)cs1 | 0.24 |
| COc1ccc(NC(=O)CSc2nnc(C)n2-c2ccc(C)cc2)cc1 | 2.94 |
| COc1cc(Nc2nccc(Oc3cnc4ccccc4c3)n2)cc(OC)c1OC | 3.41 |
| c1cn(-c2ccc(Oc3cc(Oc4ccc5c(c4)OCO5)ncn3)cc2)cn1 | 3.17 |
| Cc1ccn2c(-c3ccnc(N)n3)c(C)nc2c1 | 2.39 |
| O=C(COCc1ccncc1)N1CCC(c2ccc(Cl)cc2Cl)CC1 | 2.63 |
| Cc1ccc(NC(=O)c2ccnc(N3CCOCC3)c2)cc1Nc1ccnc(OCC2CCCN(C)C2)n1 (stereo unspecified) | 1.9 |
| CC(=O)NC[C@H]1CN(c2ccc(N3Cc4ccncc4C3)c(F)c2)C(=O)O1 | 3.02 |
| Cc1[nH]c(C(=O)NC2CCN(c3cc(C(=O)O)cc(Cl)n3)CC2)c(Cl)c1Cl | 1.74 |
| N#Cc1ccc(-c2cc(NC(N)=O)c(C(=O)N[C@H]3CCCNC3)s2)cc1 | 0.61 |
| CN1CCCN(C(c2ccccc2)c2ccc(Cl)cc2)CC1 (stereo unspecified) [HOMOCHLORCYCLIZINE] | 2.36 |
| Fc1cc(F)cc(-c2cc(N(CCCN3CCCCCC3)Cc3ccc4c(c3)OCO4)on2)c1 | 3.84 |
| Nc1ccc2ncnc(Nc3ccc(F)c(Cl)c3)c2c1 | 2.64 |
| Cc1cc2[nH]c(=O)c(O)cc(=O)c2cc1C | 1.99 |
| CNC[C@H](O)c1ccc(Cl)c(C(=O)NCC23CC4CC(CC(C4)C2)C3)c1 | 1.41 |
| CN(C)CCOC(C)(c1ccccc1)c1ccccn1 (stereo unspecified) [DOXYLAMINE] | -0.2 |
| CC(=O)NCc1ccc(CN2CCN(c3ccccc3)CC2)cc1 | 1.78 |
| C[C@H]1O[C@@H](n2cnc3c(N)nc(OC(C4CC4)C(F)(F)F)nc32)[C@H](O)[C@@H]1O (stereo partly specified) | 1.83 |
| NC1(C(=O)NC(c2ccccc2)c2ccc(Cl)cc2)CCN(c2ncnc3[nH]ccc23)CC1 (stereo unspecified) | 4.1 |
| COc1cc2nc(Nc3ccc([C@@H](C)NC(C)=O)cc3)ncc2cc1-c1ccncc1 | 3.11 |
| Cc1nc2ccc(NC(=O)CCNC(N)=O)cc2s1 | 0.9 |
| Cn1c(N)nc(CCc2cccc(-c3ccccc3)c2)cc1=O | 3.8 |

| Compound | logD |
| --- | --- |
| Nc1nc(-c2ccccc2)nn1Cc1ccccc1 | 1.91 |
| CS(=O)(=O)c1ccc(C(CCNC(=O)c2ccc(C#N)cc2)c2ccc(F)cc2)cc1 (stereo unspecified) | 2.9 |
| C[C@@H]1CN(C(=O)OC(C)(C)C)CCN1c1ncc(OCc2ccc(S(C)(=O)=O)cn2)cn1 | 3 |
| CC(=O)O[C@@]12CO[C@@H]1C[C@H](O)[C@@]1(C)C(=O)[C@H](O)C3=C(C)[C@@H](OC(=O)[C@H](O)[C@@H](NC(=O)OC(C)(C)C)c4ccccc4)C[C@@](O)([C@@H](OC(=O)c4ccccc4)[C@H]21)C3(C)C [DOCETAXEL] | 3.4 |
| NC1=NC(c2ccc(Cl)c(Cl)c2)CC(=O)N1 (stereo unspecified) | 1.46 |
| CCCc1c(OCc2ccc(C(=O)O)cc2)ccc(C(C)=O)c1O | 2.1 |
| COc1ccc(C(CNC(=O)Nc2ccccc2)N2CCN(C)CC2)cc1 (stereo unspecified) | 1.5 |
| COc1cc(F)ccc1-c1cncc(CNC(=O)C2CCC2)c1 | 3.2 |
| O=c1cc(-c2ccc(O)cc2)oc2ccc(O)cc12 | 3.3 |
| CCOc1ccc(Oc2ccc(S(=O)(=O)NC(=O)c3cccc(-c4ccc(Cl)c(Cl)c4)c3)cc2)cc1 | 2.94 |
| CS(=O)(=O)c1ccccc1C(=O)NCC(O)CNC1CCN(Cc2ccc(Cl)c(Cl)c2)CC1 (stereo unspecified) | 1.21 |
| CC(=O)N1CCOc2nc(OCc3ccccc3)ccc21 | 2.4 |
| C[C@H](CO)Nc1nc(SCc2cccc(F)c2F)nc2[nH]c(=O)c(C#N)cc12 | 3.32 |
| O=C(Nc1nc2ccccc2n1CCN1CCOCC1)c1cccc([N+](=O)[O-])c1 | 3.3 |
| CN(Cc1ccc(Cl)cc1)C(=O)C1(N)CCN(c2ncnc3[nH]ccc23)CC1 | 2.8 |
| Nc1ccc2c(c1)C(=O)C(=O)c1cc(N)ccc1-2 | 1.72 |
| O=C(O)CCn1c2ccccc2c2ccccc21 | 0.6 |
| CCN(C(=O)NCc1ccc(F)cc1)C1CCN(CCC(c2ccccc2)c2ccccc2)CC1 | 3.9 |
| Cc1nsc(C)c1CCC1CCN(S(=O)(=O)CC2(N(O)C=O)CCOCC2)CC1 | 1.5 |
| NCc1nc2ccccc2[nH]1 | 0.4 |
| O=C1CCC(=O)N1C(CCc1ccncc1)COc1ccc(-c2cccc([N+](=O)[O-])c2)cc1 (stereo unspecified) | 3.88 |
| Nc1n[nH]c2ccccc12 | 1 |
| NC(=O)c1cnc2[nH]c(-c3ccc(OCCN4CCCCC4)cc3)nc2c1NCCCNC(=O)C1CCC1 | 2.48 |

| Compound | logD |
| --- | --- |
| N#Cc1cccc(COc2ccc3c(c2)OCCC3=O)c1 | 2.8 |
| NC(=O)Nc1sc(-c2ccc(OCCN3CCCCC3)cc2)cc1C(N)=O | 1.2 |
| CCOc1ccccc1-c1ccc(-c2nc3ccc(F)cc3c(C(=O)NCCOCCN)c2C)cc1 | 2.46 |
| O=C(NC1Cc2ccccc2N(CC(=O)N2CCC(O)CC2)C1=O)c1cc2cc(Cl)sc2[nH]1 (stereo unspecified) | 2.86 |
| C[C@H]1O[C@@H](n2cnc3c(N)nc(OCC4CCC(F)(F)CC4)nc32)[C@H](O)[C@@H]1O | 1.72 |
| CCN(c1ccccc1)c1cc(NC)[n+](C)c(C)n1 | -0.91 |
| Nc1ccnc(-c2cccnc2)n1 | 0.44 |
| COc1ccc(S(=O)(=O)NCC(c2ccccc2)N2CCCCCC2)cc1 (stereo unspecified) | 3.13 |
| CC(C)(C)NC(=O)C(c1ccncc1)N(Cc1ccco1)C(=O)c1ccc(-c2ccccc2)[nH]1 (stereo unspecified) | 4.13 |
| CC(NC(=O)C1(N)CCN(c2ncnc3[nH]ccc23)CC1)c1ccc(F)cc1 (stereo unspecified) | 2.4 |
| Cc1ccc(NC(=O)c2cccc(N(C)C)c2)cc1NC(=O)c1ccc(OCc2ccccn2)cc1 | 2.83 |
| O=C(Cc1ccc2c(n1)NCCC2)Nc1ccc(C[C@H](NC(=O)c2c(Cl)cccc2Cl)C(=O)O)cc1 | -0.63 |
| O=C1C(=O)c2cc(-c3ccsc3)ccc2-c2ccccc21 | 3.1 |
| O=C(O)c1ccc2c(c1)nc(Nc1cccc(Cl)c1)c1ccncc12 [SILMITASERTIB] | 1.29 |
| NNc1nc2ccccc2[nH]c1=O | 0.44 |
| Clc1cccc2cn[nH]c12 | 2.33 |
| CCCc1c(OCCCCSCC(=O)O)ccc(C(C)=O)c1O | 1.3 |
| c1ccc(-c2cn3ccccc3n2)cc1 | 2.9 |
| CCCN(CCC)C(=O)c1cccc(C(=O)N[C@@H](Cc2ccccc2)[C@H](O)CNC2Cc3ccccc3C2)c1 | 3.3 |
| CC[C@H](NC(=O)c1c([S+](C)[O-])c(-c2ccccc2)nc2c(F)cccc12)c1ccccc1 (stereo partly specified) | 2.84 |
| NS(=O)(=O)c1cc2c(cc1C(F)(F)F)NC(Cc1ccccc1)NS2(=O)=O (stereo unspecified) [BENDROFLUMETHIAZIDE] | 1.78 |
| O=C(c1cc(Cc2n[nH]c(=O)c3ccccc23)ccc1F)N1CCN(c2ccccn2)CC1 | 2.55 |
| CCC(c1nc2ccn(C)c2c(=O)n1Cc1ccccc1)N(CCCN)C(=O)c1ccc(C)cc1 (stereo unspecified) | 1.8 |

| Compound | logD |
| --- | --- |
| O=C1c2ccc(O)cc2C(=O)N1c1cccc(O)c1 | 2 |
| COc1ccccc1CNC(=O)c1ccc2cnccc2n1 | 1.8 |
| CCCc1c(OCc2ccc(C(=O)O)c(Br)c2)ccc(C(C)=O)c1O | 2.3 |
| CN1CCC(=C2c3ccccc3C=Cc3ccccc32)CC1 [CYPROHEPTADINE] | 3.06 |
| CNCC[C@@H](Oc1ccccc1C)c1ccccc1 [ATOMOXETINE] | 1.2 |
| Cc1ccnc(NS(=O)(=O)c2ccc(N)cc2)n1 [SULFAMERAZINE] | -0.51 |
| CCOC(=O)c1cc2ccc(O)cc2oc1=O | 1.2 |
| CN(C)C(=O)CC(NC(=O)C1(N)CCN(c2ncnc3[nH]ccc23)CC1)c1ccc(Cl)cc1 (stereo unspecified) | 2.4 |
| NS(=O)(=O)c1cccc(Nc2nccc(Nc3c(Cl)ccc4c3OCO4)n2)c1 | 2.97 |
| COc1ccc(N(C(=O)c2ccccc2)C(C)C(=O)NC2CCCC2)c(OC)c1 (stereo unspecified) | 3.02 |
| NC(=O)N1c2ccccc2C[C@H](O)c2ccccc21 [ESLICARBAZEPINE] | 0.79 |
| COc1ccc(OC)c(-c2cccc3c(N)c(C(=O)NC(C)C)nnc23)c1 | 3.65 |
| CC(C)C(NC(=O)Cn1c(-c2ccccc2)ccc(NS(=O)(=O)c2ccccc2)c1=O)C(=O)C(F)(F)F (stereo unspecified) | 2.26 |
| CCCSc1ncccc1C(=O)N(C)[C@@H]1[C@@H]2CC3C[C@H]1C[C@@](O)(C3)C2 | 2.49 |
| COc1ccccc1Oc1ccc(N(Cc2cccnc2)S(=O)(=O)CC(F)(F)F)cc1 | 1.5 |
| CC1=NC(C)(c2cccc(-c3cccnc3)c2)N=C1N (stereo unspecified) | 1.7 |
| CC(=O)Nc1ccc2c(c1)c(-c1cc(NC3CC3)n3ncc(C#N)c3n1)cn2C | 2.94 |
| O=C1CCOc2nc(COc3ccccc3)ccc21 | 2.3 |
| Nc1ncc(-c2ccc(S(=O)(=O)N3CCOCC3)cc2)nc1C(=O)Nc1cccnc1 | 2.83 |
| CCCNC(=O)c1nnc2c(-c3ncccn3)c(F)ccc2c1N | 2.07 |
